Results as given in publication PMC8428802 (Journal of medicinal chemistry, 2020).
Blank lines part the entries; values can stand above or below the compound they belong to.

Tests used:
[1] = target: over 30 brain receptors or channels; experiment: NIMH-PDSP broad-panel counter screening; format: binding; details: 10 μM
[2] = tested on: HEK293 cells lacking GPR52; experiment: cAMP control study in HEK293 cells lacking GPR52; format: cell-based, human
hERG = hERG (Homo sapiens, UniProt Q12809); experiment: NIMH-PDSP counter screening, hERG binding; details: 10 μM
human GPR52 = human GPR52 (Homo sapiens, UniProt Q9Y2T5); experiment: Glosensor cAMP assay in HEK293 cells transiently expressing human GPR52; format: cell-based; details: for decreased EC50 (loss of potency): comparator not stated
Chain of human GPR52 (Q9Y2T5 whole entry): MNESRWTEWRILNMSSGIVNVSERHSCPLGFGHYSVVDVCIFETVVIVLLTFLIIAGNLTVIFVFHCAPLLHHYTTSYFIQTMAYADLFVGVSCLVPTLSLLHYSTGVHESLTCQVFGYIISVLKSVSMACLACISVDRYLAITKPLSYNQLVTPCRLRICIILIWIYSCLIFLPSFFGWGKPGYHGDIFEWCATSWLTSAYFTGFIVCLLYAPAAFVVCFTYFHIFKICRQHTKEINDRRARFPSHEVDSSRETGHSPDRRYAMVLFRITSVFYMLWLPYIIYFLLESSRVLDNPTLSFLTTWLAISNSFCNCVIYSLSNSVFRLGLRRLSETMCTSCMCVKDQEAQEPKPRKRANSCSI

Chain of hERG (Q12809 whole entry): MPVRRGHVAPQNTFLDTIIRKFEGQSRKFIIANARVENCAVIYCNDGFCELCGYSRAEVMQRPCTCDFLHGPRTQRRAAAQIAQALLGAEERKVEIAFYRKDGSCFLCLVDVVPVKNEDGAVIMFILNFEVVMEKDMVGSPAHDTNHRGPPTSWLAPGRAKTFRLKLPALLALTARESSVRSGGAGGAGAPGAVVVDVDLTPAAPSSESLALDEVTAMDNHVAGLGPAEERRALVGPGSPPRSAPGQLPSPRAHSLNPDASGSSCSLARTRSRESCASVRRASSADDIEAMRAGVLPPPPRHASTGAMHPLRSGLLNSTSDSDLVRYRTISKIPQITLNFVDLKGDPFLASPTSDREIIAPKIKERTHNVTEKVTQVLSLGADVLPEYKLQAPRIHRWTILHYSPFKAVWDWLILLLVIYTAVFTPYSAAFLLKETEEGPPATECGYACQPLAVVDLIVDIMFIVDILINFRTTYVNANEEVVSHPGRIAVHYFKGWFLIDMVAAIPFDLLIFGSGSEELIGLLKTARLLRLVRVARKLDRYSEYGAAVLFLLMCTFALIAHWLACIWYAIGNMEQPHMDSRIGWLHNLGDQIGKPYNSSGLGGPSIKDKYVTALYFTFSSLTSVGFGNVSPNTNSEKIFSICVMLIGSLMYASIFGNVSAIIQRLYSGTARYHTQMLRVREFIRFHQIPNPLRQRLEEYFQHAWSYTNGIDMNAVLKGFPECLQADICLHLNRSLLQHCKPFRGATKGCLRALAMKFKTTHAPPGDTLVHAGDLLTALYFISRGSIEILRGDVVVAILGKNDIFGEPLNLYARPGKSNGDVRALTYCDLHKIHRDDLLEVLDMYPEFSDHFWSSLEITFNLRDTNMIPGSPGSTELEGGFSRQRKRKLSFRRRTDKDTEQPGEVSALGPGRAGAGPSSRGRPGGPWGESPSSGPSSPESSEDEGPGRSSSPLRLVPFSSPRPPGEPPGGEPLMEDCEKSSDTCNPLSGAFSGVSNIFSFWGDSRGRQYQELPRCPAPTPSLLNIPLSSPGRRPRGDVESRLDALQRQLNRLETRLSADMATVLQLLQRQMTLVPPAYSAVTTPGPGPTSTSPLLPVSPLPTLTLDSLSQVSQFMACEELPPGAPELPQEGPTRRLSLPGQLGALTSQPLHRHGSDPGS

binding affinity (Ki) at panel [1]: no significant binding affinity
SMILES: O=C(NCCO)c1cccc2c1CCN2c1cc(Cc2cc(F)cc(C(F)(F)F)c2)ncn1 [Compound 12c, 1-(6-(3-Fluoro-5-(trifluoromethyl)benzyl)pyrimidin-4-yl)-N-(2-hydroxyethyl)indoline-4-carboxamide]
cAMP increase in cells lacking GPR52 [2]: did not increase cAMP
hERG potassium channel binding activity (hERG): did not show any

SMILES: Cc1c(Cc2cc(F)cc(C(F)(F)F)c2)cnnc1N1CCc2c(C(=O)NCCO)cccc21 [Compound 12e, 1-(5-(3-Fluoro-5-(trifluoromethyl)benzyl)-4-methylpyridazin-3-yl)-N-(2-hydroxyethyl)indoline-4-carboxamide]
decreased EC50 (loss of potency) (human GPR52): > 4 fold

SMILES: O=C(NCCO)c1cccc2c1CCN2c1nncc(Cc2cc(F)cc(C(F)(F)F)c2)c1Cl [Compound 12f, 1-(4-Chloro-5-(3-fluoro-5-(trifluoromethyl)benzyl)-pyridazin-3-yl)-N-(2-hydroxyethyl)indoline-4-carboxamide]
decreased EC50 (loss of potency) (human GPR52): > 4 fold

loss of potency relative to 23a (human GPR52; EC50 vs compound 23a): > 7 fold
SMILES: O=C(NCCO)c1cccc2c1CCN2c1cc(Cc2ccccc2C(F)(F)F)ncn1 [Compound 23b, N-(2-Hydroxyethyl)-1-(6-(2-(trifluoromethyl)benzyl)-pyrimidin-4-yl)indoline-4-carboxamide]
